| Structure (SMILES) | melting point |
| --- | --- |
| NC(=O)c1sccc1N | 120 to 122 °C |
| CC(O)CCc1ccc2c(c1)NC(C)CC2 (centres undefined) | 79 °C |
| OC[C@H]1O[C@@H](n2cnc3c(Cl)ncnc32)[C@H](O)[C@@H]1O | 161 to 163 °C |
| CC(O)C1CCC2C3CCC4CC(O)CCC4(C)C3CCC12C (centres undefined) | 245 °C |
| O=Cc1cc(I)cc(I)c1O | 108 °C |
| Nc1ccc(N2CCOCC2)cc1 | 130 to 131 °C |
| CC12NC(Cc3ccccc31)c1ccccc12 (centres undefined) | 68.8 °C |
| O=C(O)C1Cc2cc(O)ccc2CN1 (racemic) | 256 to 260 °C |
| O=C(O)/C=C/c1ccc(I)o1 | 145 °C |
| C=C1CCCCC1 | -107 °C |
| Cc1nn(C)c(N2CCOCC2)c1C=O | 74 to 76 °C |
| CC12CCC(=O)CC1(O)CCC2=O (single isomer, unassigned; (+)) | 110 to 118 °C |
| NNc1ccc(F)c(Cl)c1 | 74 °C |
| O=[N+]([O-])c1cc2nccnc2cc1Cl | 210 to 213 °C |
| CC#CC(C)C | -110 °C |
| C1CCCCCCCC1 | 11 °C |
| Cc1ccc(O)c(I)n1 | 195 to 201 °C |
| CSC(SC)=C1CCCC(=C(SC)SC)C1=C(C#N)C#N | 155 to 156 °C |
| Cc1ncc([N+](=O)[O-])n1CC(O)CCl (centres undefined) | 77.5 °C |
| CC(=O)OC[C@H]1O[C@@H](OC(C)=O)[C@H](OC(C)=O)[C@@H](OC(C)=O)[C@H]1OC(C)=O | 144 °C |
| CCCCCCNC | -31 °C |
| OCc1cc(O)cc(O)c1 | 181 to 186 °C |
| CN(C)CCc1c[nH]c2cccc(O)c12 | 174 °C |
| C#CC1(O)CCC2C3CCC4C(C)(C)CCCC4(C)C3CCC21C (centres undefined) | 156 to 158 °C |
| FC(F)(F)c1ccc2nsnc2c1 | 36 to 37 °C |
| CC1(O)C(=O)CC2CC1C2(C)C (centres undefined) | 38.5 °C |
| Cn1ccnc1CO | 107 to 111 °C |
| N#CC(C#N)=Cc1ccco1 | 70 to 74 °C |
| CN(C)C1=NC(=O)C(c2ccccc2)O1 (centres undefined) | 133 °C |

More lines, now with the values ahead:

| melting point | Structure (SMILES) |
| --- | --- |
| 133 °C | COc1ccc(/C=C2\SC(=S)N(CN3CCOCC3)C2=O)cc1 |
| 39 to 41 °C | N#CCc1coc2ccccc12 |
| 267 to 272 °C | CCOC(=O)c1c[nH]c2c(F)c(F)c(F)cc2c1=O |
| 7 °C | BrC=Cc1ccccc1 |
| 127 to 130 °C | NC(=S)c1ccc(Cl)cc1 |
| 89 °C | CC(C)(O)C(=O)c1ccc(OCCO)cc1 |
| 83.5 °C | COc1ccc2ccc(=O)oc2c1CC=C(C)C |
| 123 to 124 °C | O=C(O)Cc1ccc(OCc2ccccc2)cc1 |
| 212 °C | O=C(Nc1ccc2nn(C3CCCCC3)nc2c1)c1ccccc1 |
| 115 °C | CCOC(=O)c1c(SC)nn(C(=O)c2cccc(C)c2)c1C |
| 139 °C | Oc1cc(C(F)(F)F)nc2c(Cl)cccc12 |
| 66 to 68 °C | Cc1onc(-c2ccccc2)c1CN |
| 139 to 144 °C | O=C(C=CC=Cc1ccccc1)C=CC=Cc1ccccc1 |
| 149 to 153 °C | O=C(O)[C@H]1CCCCN1C(=O)OCC1c2ccccc2-c2ccccc21 |
| 128 to 130 °C | ClCc1nnc(-c2ccc3ccccc3c2)o1 |
| 150 °C | NC(=O)c1ccccc1CO |
| -62 °C | Cc1ccccc1F |
| 212 °C | O=[N+]([O-])c1ccc(N=Nc2ccc([N+](=O)[O-])cc2)cc1 |
| 92 to 94 °C | O=C(CS)Nc1ccc(F)cc1 |
| 67 to 70 °C | COC(=O)c1cc(OCc2ccccc2)cc(OCc2ccccc2)c1 |
| 175 to 178 °C | NC(=S)c1ccc(Oc2ccc(C(F)(F)F)cn2)cc1 |
| 211 °C | O=C(Nc1ccc(Cl)cc1C(O)c1ccccc1)c1ccncc1 (centres undefined) |
| 262 to 263 °C | NC(Cc1ccc(Br)cc1)C(=O)O (racemic) |
| 28 °C | CC(=O)c1ccc(C)cc1 |
| 360 to 362 °C | O=c1c2ccccc2[nH]c2ccccc12 |
